Data reported in patent US9012456B2, “Compounds, pharmaceutical compositions and uses thereof” (Boehringer Ingelheim International GmbH, priority 2012, dated 2015).

Biological target: T1, human GPR119 (Homo sapiens, UniProt Q8TDV5)
T1 construct: expressed in transfected cells
T1 sequence (Q8TDV5 1-335): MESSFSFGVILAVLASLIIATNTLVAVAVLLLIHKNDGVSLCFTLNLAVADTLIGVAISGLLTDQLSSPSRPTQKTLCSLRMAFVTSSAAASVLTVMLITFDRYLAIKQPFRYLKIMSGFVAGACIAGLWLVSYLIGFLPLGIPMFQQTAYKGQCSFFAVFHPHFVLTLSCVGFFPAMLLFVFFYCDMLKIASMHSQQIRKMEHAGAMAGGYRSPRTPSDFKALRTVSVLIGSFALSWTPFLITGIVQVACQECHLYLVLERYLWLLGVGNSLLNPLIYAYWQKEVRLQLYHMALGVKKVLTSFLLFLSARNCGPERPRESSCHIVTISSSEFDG
Assay: AlphaScreen cAMP assay in Min-6/hGPR119 cells (activation of GPR119, stimulation of intracellular cAMP)
Assay type: cell-based
Conditions: MIN6 cells stably transfected with human GPR119; 45 min incubation at room temperature; cAMP by AlphaScreen
Experimental: The compounds of formula I according to the invention modulate the activity of the G-protein-coupled receptor GPR119. The effect of the compounds on the activation of GPR119 and on the stimulation of intracellular cAMP concentration is determined using the AlphaScreen cAMP Assay Kit (Cat. No. #6760625R) made by PerkinElmer.
MIN6 cells [Miyazaki J et al., Endocrinology. 1990 July; 127(1):126-32] are stably transfected with an expression vector for human GPR119 cDNA (Acc. No. NP_848566). Min-6/hGPR119 cells are cultured in DMEM, 10% FBS, 50 μM β-mercaptoethanol, 0.3 mg/mL Geniticin, 2 mM GlutaMAX at 37° C., 5% CO2. For the assay, the cells are seeded in Optiplates (white, 384-well, 160W-barcoded, TC, sterile with lid, Cat. No. #6007688 (Perkin Elmer); 10000 cells/well; 50 μL). The plates covered with lids are then incubated for 24 hours at 37° C., 5% CO2. After the medium is aspirated from the wells completely, 10 μl of the test compound are added, the compounds are diluted using stimulating buffer (140 mM NaCl, 3.6 mM KCl, 0.5 mM NaH2PO4, 0.5 mM MgSO4, 1.5 mM CaCl2, 10 mM Hepes, 5 mM NaHCO3; pH 7.4. 0.5 mM IBMX and 0.1% BSA, the final DMSO concentration is 1%). After 45 minutes incubation at room temperature (approx. 20° C.), the cAMP concentrations are determined using the AlphaScreen cAMP Assay Kit (Cat. No. #6760625R from PerkinElmer).

Point of comparison: `CC(C)(C)OC(=O)N1CCC(c2cc3cc(-c4ccc(CS(C)(=O)=O)cc4)ncc3o2)CC1` [Example 12, 4-[5-(4-Methanesulfonylmethyl-phenyl)-furo[2,3-c]pyridin-2-yl]-piperidine-1-carboxylic acid tert-butyl ester], EC50 105 nM. Against it:
- CC(C)(C)OC(=O)N1CCC(c2cc3cc(-c4ccc(S(C)(=O)=O)cc4)ncc3o2)CC1 [Example 1, 4-[5-(4-Methanesulfonyl-phenyl)-furo[2,3-c]pyridin-2-yl]-piperidine-1-carboxylic acid tert-butyl ester] — 1.8-fold lower, 58 nM
- CC(C)(C)OC(=O)N1CCC(c2cc3cc(-c4ccc(S(C)(=O)=O)c(F)c4)ncc3o2)CC1 [Example 2, 4-[5-(3-Fluoro-4-methanesulfonyl-phenyl)-furo[2,3-c]pyridin-2-yl]-piperidine-1-carboxylic acid tert-butyl ester] — 1.7-fold lower, 62 nM
- CC(C)(C)OC(=O)N1CCC(c2cc3cc(-c4ccc(S(C)(=O)=O)cc4F)ncc3o2)CC1 [Example 3, 4-[5-(2-Fluoro-4-methanesulfonyl-phenyl)-furo[2,3-c]pyridin-2-yl]-piperidine-1-carboxylic acid tert-butyl ester] — 12-fold lower, 9 nM
- CC(C)(C)OC(=O)N1CCC(c2cc3cc(-c4ccc(NS(C)(=O)=O)cc4)ncc3o2)CC1 [Example 4, 4-[5-(4-Methanesulfonylamino-phenyl)-furo[2,3-c]pyridin-2-yl]-piperidine-1-carboxylic acid tert-butyl ester] — within 1.5-fold, 121 nM
- CC(C)(C)OC(=O)N1CCC(c2cc3cc(-c4ccc(C#N)c(F)c4)ncc3o2)CC1 [Example 5, 4-[5-(4-Cyano-3-fluoro-phenyl)-furo[2,3-c]pyridin-2-yl]-piperidine-1-carboxylic acid tert-butyl ester] — 2.5-fold higher, 263 nM
- CCNC(=O)c1ccc(-c2cc3cc(C4CCN(C(=O)OC(C)(C)C)CC4)oc3cn2)cc1 [Example 6, 4-[5-(4-Ethylcarbamoyl-phenyl)-furo[2,3-c]pyridin-2-yl]-piperidine-1-carboxylic acid tert-butyl ester] — 2.3-fold lower, 45 nM
- CC(C)(C)OC(=O)N1CCC(c2cc3cc(-c4ccc(C(N)=O)cc4F)ncc3o2)CC1 [Example 7, 4-[5-(2-Fluoro-4-aminocarbonyl-phenyl)-furo[2,3-c]pyridin-2-yl]-piperidine-1-carboxylic acid tert-butyl ester] — within 1.5-fold, 108 nM
- CC(C)(C)OC(=O)N1CCC(c2cc3cc(-c4ccc(C#N)cc4F)ncc3o2)CC1 [Example 8, 4-[5-(4-Cyano-2-fluoro-phenyl)-furo[2,3-c]pyridin-2-yl]-piperidine-1-carboxylic acid tert-butyl ester] — 2.7-fold higher, 281 nM
- CC(C)(C)OC(=O)N1CCC(c2cc3cc(-c4ccc(C(=O)OCc5ccccc5)cc4)ncc3o2)CC1 [Example 9, 4-[5-(4-Benzyloxycarbonyl-phenyl)-furo[2,3-c]pyridin-2-yl]-piperidine-1-carboxylic acid tert-butyl ester] — 5.4-fold higher, 567 nM
- CC(C)(C)OC(=O)N1CCC(c2cc3cc(-c4cnco4)ncc3o2)CC1 [Example 10, 4-(5-Oxazol-5-yl-furo[2,3-c]pyridin-2-yl)-piperidine-1-carboxylic acid tert-butyl ester] — 5.6-fold higher, 592 nM
- CC(C)(C)OC(=O)N1CCC(c2cc3cc(-c4ccncc4)ncc3o2)CC1 [Example 11, 4-(5-Pyridin-4-yl-furo[2,3-c]pyridin-2-yl)-piperidine-1-carboxylic acid tert-butyl ester] — 3-fold higher, 310 nM
- CC(C)(C)OC(=O)N1CCC(c2cc3cc(N4CCN(S(C)(=O)=O)CC4)ncc3o2)CC1 [Example 13, 4-[5-(4-Methanesulfonyl-piperazin-1-yl)-furo[2,3-c]pyridin-2-yl]-piperidine-1-carboxylic acid tert-butyl ester] — within 1.5-fold, 82 nM
- CC(C)(C)OC(=O)N1CCC(c2cc3cc(C4=CCN(S(C)(=O)=O)CC4)ncc3o2)CC1 [Example 14, 4-[5-(1-Methanesulfonyl-1,2,3,6-tetrahydro-pyridin-4-yl)-furo[2,3-c]pyridin-2-yl]-piperidine-1-carboxylic acid tert-butyl ester] — 12-fold lower, 9 nM
- CC(C)(C)OC(=O)N1CCC(c2cc3cc(-c4ccncc4F)ncc3o2)CC1 [Example 15, 4-[5-(3-Fluoro-pyridin-4-yl)-furo[2,3-c]pyridin-2-yl]-piperidine-1-carboxylic acid tert-butyl ester] — 2.2-fold higher, 233 nM
- CCc1cnc(N2CCC(c3cc4cc(-c5ccc(S(C)(=O)=O)cc5F)ncc4o3)CC2)nc1 [Example 16, 2-[1-(5-Ethyl-pyrimidin-2-yl)-piperidin-4-yl]-5-(2-fluoro-4-methanesulfonyl-phenyl)-furo[2,3-c]pyridine] — 1.6-fold lower, 64 nM
- CS(=O)(=O)c1ccc(-c2cc3cc(C4CCN(CC5(C(F)(F)F)CC5)CC4)oc3cn2)c(F)c1 [Example 17, 5-(2-Fluoro-4-methanesulfonyl-phenyl)-2-[1-(1-trifluoromethyl-cyclopropylmethyl)-piperidin-4-yl]-furo[2,3-c]pyridine] — 2.1-fold lower, 51 nM
- CC(C)(F)CN1CCC(c2cc3cc(-c4ccc(S(C)(=O)=O)cc4F)ncc3o2)CC1 [Example 18, 5-(2-Fluoro-4-methanesulfonyl-phenyl)-2-[1-(2-fluoro-2-methyl-propyl)-piperidin-4-yl]-furo[2,3-c]pyridine] — within 1.5-fold, 79 nM
- CC(C)OC(=O)N1CCC(c2cc3cc(-c4ccc(S(C)(=O)=O)cc4F)ncc3o2)CC1 [Example 19, 4-[5-(2-Fluoro-4-methanesulfonyl-phenyl)-furo[2,3-c]pyridin-2-yl]-piperidine-1-carboxylic acid isopropyl ester] — 8.8-fold lower, 12 nM
- CC1(OC(=O)N2CCC(c3cc4cc(-c5ccc(S(C)(=O)=O)cc5F)ncc4o3)CC2)CC1 [Example 20, 4-[5-(2-Fluoro-4-methanesulfonyl-phenyl)-furo[2,3-c]pyridin-2-yl]-piperidine-1-carboxylic acid 1-methyl-cyclopropyl ester] — 8.1-fold lower, 13 nM
- CC(C)OC(=O)N1CCC(c2cc3cc(C4=CCN(S(C)(=O)=O)CC4)ncc3o2)CC1 [Example 21, 4-[5-(1-Methanesulfonyl-1,2,3,6-tetrahydro-pyridin-4-yl)-furo[2,3-c]pyridin-2-yl]-piperidine-1-carboxylic acid isopropyl ester] — 5.5-fold lower, 19 nM
- CC1(OC(=O)N2CCC(c3cc4cc(C5=CCN(S(C)(=O)=O)CC5)ncc4o3)CC2)CC1 [Example 22, 4-[5-(1-Methanesulfonyl-1,2,3,6-tetrahydro-pyridin-4-yl)-furo[2,3-c]pyridin-2-yl]-piperidine-1-carboxylic acid 1-methyl-cyclopropyl ester] — 10-fold lower, 10 nM
- CS(=O)(=O)N1CC=C(c2cc3cc(C4CCN(c5ccc(C(F)(F)F)cn5)CC4)oc3cn2)CC1 [Example 23, 4-[5-(1-Methanesulfonyl-1,2,3,6-tetrahydro-pyridin-4-yl)-furo[2,3-c]pyridin-2-yl]-5′-trifluoromethyl-3,4,5,6-tetrahydro-2H-[1,2′]bipyridinyl] — within 1.5-fold, 86 nM
- CS(=O)(=O)N1CC=C(c2cc3cc(C4CCN(CC5(C(F)(F)F)CC5)CC4)oc3cn2)CC1 [Example 24, 5-(1-Methanesulfonyl-1,2,3,6-tetrahydro-pyridin-4-yl)-2-[1-(1-trifluoromethyl-cyclopropylmethyl)-piperidin-4-yl]-furo[2,3-c]pyridine] — 3.8-fold lower, 28 nM
- CS(=O)(=O)N1CC=C(c2cc3cc(C4CCN(c5ncc(Cl)cn5)CC4)oc3cn2)CC1 [Example 25, 2-[1-(5-Chloro-pyrimidin-2-yl)-piperidin-4-yl]-5-(1-methanesulfonyl-1,2,3,6-tetrahydro-pyridin-4-yl)-furo[2,3-c]pyridine] — 2.6-fold lower, 41 nM
- CS(=O)(=O)N1CC=C(c2cc3cc(C4CCN(c5nnc(C(F)(F)F)s5)CC4)oc3cn2)CC1 [Example 26, 5-(1-Methanesulfonyl-1,2,3,6-tetrahydro-pyridin-4-yl)-2-[1-(5-trifluoromethyl-[1,3,4]thiadiazol-2-yl)-piperidin-4-yl]-furo[2,3-c]pyridine] — 5.8-fold lower, 18 nM
- CC(C)(C)OC(=O)N1CCC(C)(c2cc3cc(-c4ccc(S(C)(=O)=O)cc4)ncc3o2)CC1 [Example 27, 4-[5-(4-Methanesulfonyl-phenyl)-furo[2,3-c]pyridin-2-yl]-4-methyl-piperidine-1-carboxylic acid tert-butyl ester] — within 1.5-fold, 140 nM
- CC(C)(C)OC(=O)N1CCC(C)(c2cc3cc(C4=CCN(S(C)(=O)=O)CC4)ncc3o2)CC1 [Example 28, 4-[5-(1-Methanesulfonyl-1,2,3,6-tetrahydro-pyridin-4-yl)-furo[2,3-c]pyridin-2-yl]-4-methyl-piperidine-1-carboxylic acid tert-butyl ester] — within 1.5-fold, 73 nM
